{"source": "patent US11564922B2", "about": "“Methods of treating crohn's disease and ulcerative colitis” (AbbVie Inc., priority 2017, dated 2023)", "key": {"[1]": {"assay": "Solid state forms of upadacitinib: hygroscopicity", "assay_type": "physicochemical"}, "[2]": {"assay": "Solid state forms of upadacitinib: chemical and physical stability"}, "[3]": {"assay": "Solid state forms of upadacitinib: solubility and bioavailability", "assay_type": "physicochemical"}, "[4]": {"tested_on": "subjects with moderately to severely active ulcerative colitis", "assay": "Example 20: Phase 3 maintenance study in ulcerative colitis (Study M14-234 Substudy 3), upadacitinib 15 mg or 30 mg QD vs placebo, 52 weeks", "assay_type": "in vivo, human", "details": "for Clinical remission per Adapted Mayo Score at Week 52, % / Clinical remission at Week 52, Treatment Difference vs. PBO / Discontinued from Study Drug, Adverse events (primary reason), % / Discontinued from Study Drug, Lack of efficacy (primary reason), %: ITTA; for Clinical remission per Adapted Mayo Score at Week 52, % / Clinical remission at Week 52, Treatment Difference vs. PBO: NRI-C; for Corticosteroid-free remission, % of patients: patients in remission at completion of the 8-week induction studies; for Clinical remission (per Adapted Mayo Score) / Endoscopic improvement / Histologic-endoscopic mucosal improvement / Corticosteroid-free clinical remission: Week 52; for Corticosteroid-free clinical remission: among patients with clinical remission after 8 weeks of induction"}, "[5]": {"tested_on": "subjects with moderately to severely active CD", "assay": "Study M13-740: Phase 2 induction study, immediate-release upadacitinib vs placebo", "assay_type": "in vivo, human", "details": "induction phase of Study M13-740, immediate-release formulation, doses of 6 mg BID and higher"}, "[6]": {"tested_on": "subjects with moderately to severely active ulcerative colitis", "assay": "Example 19: Phase 3 induction study in ulcerative colitis (Study M14-675), upadacitinib 45 mg QD vs placebo", "procedure": "The primary objective of this study is to evaluate the efficacy and safety of upadacitinib 45 mg once daily (QD) compared to placebo in inducing clinical remission (per Adapted Mayo score) in subjects with moderately to severely active ulcerative colitis (UC).\nThe secondary objectives of the study are to evaluate the efficacy of upadacitinib 45 mg QD comparing with placebo in ranked secondary endpoints of achieving endoscopic improvement, endoscopic remission, clinical response per Adapted Mayo Score, clinical response per Partial Adapted Mayo score, histologic-endoscopic mucosal improvement, no bowel urgency, no abdominal pain, histologic improvement, mucosal healing, and change in IBDQ total score and FACIT-F score.\nMales and females between 18 and 75 years of age with a diagnosis of moderately to severely active UC. […] The study will consist of a mixed population: biologic-inadequate responders (bio-IR) and non-biologic-inadequate responders (non-bio-IR).\nThe randomization will be stratified by bio-IR status (bio-IR vs non-bio-IR), corticosteroid use (yes or no) and Adapted Mayo score (≤7 or >7) at Baseline. Within bio-IR, the randomization will be further stratified by number of prior biologic treatments (≤1 or >1). Within non-bio-IR, the randomization will be further stratified by previous biologic use (yes or no).\nThe blind from Part 1 will not be broken for the duration of the study as subjects will be assessed as clinical non-responders at the 8 Week Visit of Part 1 and will be moved to Part 2 for further treatment in the study without identifying their initial treatment assignment. All eligible subjects entering Part 2 will receive open-label treatment with upadacitinib 45 mg QD for 8 additional weeks (until Week 16). At Week 16, an endoscopy will be performed to evaluate the treatment effect. A flexible rectosigmoidoscopy is recommended. However, the use of flexible sigmoidoscopy or colonoscopy is at the investigators' discretion based on local practice.\nFor the assessment of the clinical endpoints, the stool frequency and the rectal bleeding subscore will be calculated as an average of the entries recorded into the subject's diary from the most recent consecutive 3-day period prior to each study visit. If diary entries from the 3 consecutive days prior to the visit are not available, the 3 most recent consecutive days in the last 10 days will be utilized. If data is not available for 3 consecutive days, the average of the entries from the most recent 3 non-consecutive days in the last 10 days will be utilized. Clinical endpoints of abdominal pain and bowel urgency from subject diaries will be measured at the same time period as the stool frequency and rectal bleeding subscores. Proportion of subjects who report no abdominal pain and proportion of subjects who report no bowel urgency in the 3 days will be estimated.\nSubjects will undergo a full colonoscopy with biopsy for histologic assessment during Screening with local investigator assessment for Mayo endoscopic subscore for initial eligibility assessment, confirmed by a central reader prior to randomization. At end of treatment (Week 8 in Part 1) a full colonoscopy or flexible sigmoidoscopy, depending on the extent of disease at Screening, will be performed.\nThe endoscopic subscore result from the central reader during the screening period will be used to evaluate the eligibility of a subject to enroll in the study and for all efficacy assessments at Week 8 of Part 1.\nMale or female between 16 and 75 years of age at Baseline."}, "[7]": {"assay": "Pharmacokinetic exposure of once-daily formulation versus immediate-release formulation (AUC, Cmin, Cmax)", "assay_type": "in vivo, human", "details": "15 mg QD and 30 mg QD once-daily formulation versus 6 mg BID and 12 mg BID immediate-release formulation, respectively", "protocol": "This study evaluated two maintenance doses of upadacitinib at 15 mg and 30 mg QD. […] In addition, all the currently available PK, pharmacodynamic, safety, and efficacy data from upadacitinib studies were used to support the selection of these doses. […] Following induction with 45 mg QD, doses of 15 mg QD and 30 mg QD are expected to maintain clinical and endoscopic response while having better long-term safety profile compared to higher doses. Doses of 15 mg QD and 30 mg QD for up to 240 weeks were expected to be efficacious with an acceptable safety profile."}}, "note": "Entries after “also recorded” stand apart in the source; their conditions may differ.", "data": [{"molecule": "CC[C@@H]1CN(C(=O)NCC(F)(F)F)C[C@@H]1c1cnc2cnc3[nH]ccc3n12", "note": "[Amorphous Freebase]", "values": [{"measurement": "Hygroscopicity", "setting": "[1]", "result": "hygroscopic"}, {"measurement": "Water content (hygroscopicity)", "setting": "[1]; 25° C./90% relative humidity", "result": "≤ 12", "unit": "% by weight"}, {"measurement": "Chemical stability", "setting": "[2]", "result": "acceptable chemical stability"}, {"measurement": "Stability to light and peroxide", "setting": "[2]", "result": "acceptable stability to light and peroxide"}, {"measurement": "Solubility", "setting": "[3]", "result": "greater solubility"}]}, {"molecule": "CC[C@@H]1CN(C(=O)NCC(F)(F)F)C[C@@H]1c1cnc2cnc3[nH]ccc3n12.CC[C@@H]1CN(C(=O)NCC(F)(F)F)C[C@@H]1c1cnc2cnc3[nH]ccc3n12.O", "note": "[Freebase Hydrate Form C]", "values": [{"measurement": "Hygroscopicity", "setting": "[1]", "result": "low hygroscopicity"}, {"measurement": "Chemical stability", "setting": "[2]", "result": "good chemical stability"}]}, {"molecule": "CC[C@@H]1CN(C(=O)NCC(F)(F)F)C[C@@H]1c1cnc2cnc3[nH]ccc3n12", "note": "[UPA, upadacitinib]", "values": [{"measurement": "Clinical remission per Adapted Mayo Score at Week 52, %", "setting": "[4]; Bio-IR, UPA 15 mg QD N = 71", "result": 40.5, "unit": "%"}, {"measurement": "Clinical remission at Week 52, Treatment Difference vs. PBO", "setting": "[4]; Bio-IR, UPA 15 mg", "result": 33.0, "unit": "%"}, {"measurement": "Clinical remission per Adapted Mayo Score at Week 52, %", "setting": "[4]; Bio-IR, UPA 30 mg QD N = 73", "result": 49.1, "unit": "%"}, {"measurement": "Clinical remission at Week 52, Treatment Difference vs. PBO", "setting": "[4]; Bio-IR, UPA 30 mg", "result": 41.6, "unit": "%"}, {"measurement": "Clinical remission per Adapted Mayo Score at Week 52, %", "setting": "[4]; Non-Bio-IR, UPA 15 mg QD N = 77", "result": 43.9, "unit": "%"}, {"measurement": "Clinical remission at Week 52, Treatment Difference vs. PBO", "setting": "[4]; Non-Bio-IR, UPA 15 mg", "result": 26.3, "unit": "%"}, {"measurement": "Clinical remission per Adapted Mayo Score at Week 52, %", "setting": "[4]; Non-Bio-IR, UPA 30 mg QD N = 81", "result": 54.0, "unit": "%"}, {"measurement": "Clinical remission at Week 52, Treatment Difference vs. PBO", "setting": "[4]; Non-Bio-IR, UPA 30 mg", "result": 36.3, "unit": "%"}, {"measurement": "Discontinued from Study Drug, Adverse events (primary reason), %", "setting": "[4]; UPA 15 mg QD (N = 148)", "result": "(2.7) %"}, {"measurement": "Discontinued from Study Drug, Lack of efficacy (primary reason), %", "setting": "[4]; UPA 15 mg QD (N = 148)", "result": "(23.6) %"}, {"measurement": "Discontinued from Study Drug, Adverse events (primary reason), %", "setting": "[4]; UPA 30 mg QD (N = 154)", "result": "(5.2) %"}, {"measurement": "Discontinued from Study Drug, Lack of efficacy (primary reason), %", "setting": "[4]; UPA 30 mg QD (N = 154)", "result": "(7.8) %"}]}, {"molecule": "CC[C@@H]1CN(C(=O)NCC(F)(F)F)C[C@@H]1c1cnc2cnc3[nH]ccc3n12", "note": "[upadacitinib, (3S,4R)-3-ethyl-4-(3H-imidazo[1,2-a]pyrrolo[2,3-e]pyrazin-8-yl)-N-(2,2,2-trifluoroethyl)pyrrolidine-1-carboxamide]", "values": [{"measurement": "clinical and endoscopic efficacy compared to placebo", "setting": "[5]", "result": "demonstrated the clinical and endoscopic efficacy"}, {"measurement": "Rates of severe adverse events and AEs leading to study drug discontinuation compared to placebo", "setting": "[6]; 45 mg", "result": "lower"}, {"measurement": "Onset of clinical response per Partial Adapted Mayo Score", "setting": "[6]; 45 mg QD", "result": "as early as Week 2"}, {"measurement": "Patients with clinical response at week 8", "setting": "[6]; 45 mg QD", "result": "approximately 75%"}, {"measurement": "Rates of neutropenia, lymphopenia, hepatic disorder, and CPK elevation compared to placebo", "setting": "[6]; 45 mg QD", "result": "higher"}, {"measurement": "Tolerability of eight-week induction treatment", "setting": "[6]; 45 mg QD", "result": "well tolerated"}, {"measurement": "Week 8 non-responding patients with clinical response by 16 weeks", "setting": "[6]; 45 mg QD, additional 8 weeks", "result": "approximately 50%"}, {"measurement": "Deaths", "setting": "[6]; 45 mg QD, 8 weeks", "result": "No deaths were reported"}, {"measurement": "Primary and ranked secondary endpoints vs placebo", "setting": "[6]; 45 mg QD, 8 weeks, all p<0.001", "result": "met primary and all ranked secondary endpoints"}, {"measurement": "Proportion of subjects achieving clinical remission per Adapted Mayo score at Week 8", "setting": "[6]; 45 mg QD, SFS ≤1 and not greater than baseline, RBS 0, endoscopic subscore ≤1", "result": 33.5, "unit": "%"}, {"measurement": "Clinical remission per Adapted Mayo score at Week 52, proportion of subjects", "setting": "[4]; 15 mg QD maintenance after 8 weeks 45 mg QD induction", "result": 42.3, "unit": "%"}, {"measurement": "Safety and tolerability", "setting": "[4]; 15 mg and 30 mg QD, 52 weeks", "result": "generally safe and well tolerated"}, {"measurement": "Corticosteroid-free remission, % of patients", "setting": "[4]; 15 mg cohort", "result": 57, "unit": "%"}, {"measurement": "Clinical remission (per Adapted Mayo Score)", "setting": "[4]; 15 mg once daily (n = 148)", "result": 42, "unit": "%"}, {"measurement": "Endoscopic improvement", "setting": "[4]; 15 mg once daily (n = 148)", "result": 49, "unit": "%"}, {"measurement": "Histologic-endoscopic mucosal improvement", "setting": "[4]; 15 mg once daily (n = 148)", "result": 35, "unit": "%"}, {"measurement": "Corticosteroid-free clinical remission", "setting": "[4]; 15 mg once daily, N = 47", "result": 57, "unit": "%"}, {"measurement": "Clinical remission per Adapted Mayo score at Week 52, proportion of subjects", "setting": "[4]; 30 mg QD maintenance after 8 weeks 45 mg QD induction", "result": 51.7, "unit": "%"}, {"measurement": "Corticosteroid-free remission, % of patients", "setting": "[4]; 30 mg cohort", "result": 68, "unit": "%"}, {"measurement": "Clinical remission (per Adapted Mayo Score)", "setting": "[4]; 30 mg once daily (n = 154)", "result": 52, "unit": "%"}, {"measurement": "Endoscopic improvement", "setting": "[4]; 30 mg once daily (n = 154)", "result": 62, "unit": "%"}, {"measurement": "Histologic-endoscopic mucosal improvement", "setting": "[4]; 30 mg once daily (n = 154)", "result": 49, "unit": "%"}, {"measurement": "Corticosteroid-free clinical remission", "setting": "[4]; 30 mg once daily, N = 58", "result": 68, "unit": "%"}, {"measurement": "Clinical response per Partial Adapted Mayo Score and clinical remission rate per Partial Mayo Score over time", "setting": "[4]; both upadacitinib groups (15 mg, 30 mg)", "result": "maintained over time until Week 52"}, {"measurement": "Upadacitinib pharmacokinetics, induction vs maintenance periods", "setting": "[4]; subjects with UC", "result": "consistent between the induction and maintenance periods"}, {"measurement": "daily area under the concentration-time curve (AUC)", "setting": "[7]", "result": "equivalent"}, {"measurement": "minimum plasma concentration (Cmin) and maximum plasma concentration (Cmax)", "setting": "[7]", "result": "comparable"}]}, {"molecule": "CC[C@@H]1CN(C(=O)NCC(F)(F)F)C[C@@H]1c1cnc2cnc3[nH]ccc3n12", "note": "[Freebase Anhydrate Form D]", "values": [{"measurement": "Hygroscopicity", "setting": "[1]", "result": "reversibly hygroscopic"}, {"measurement": "Water content (hygroscopicity)", "setting": "[1]; 90% RH at 25° C.", "result": "up to 1.8%"}, {"measurement": "Physical stability", "setting": "[2]", "result": "metastable relative to Freebase Hydrate Form C"}]}, {"molecule": "CC[C@@H]1CN(C(=O)NCC(F)(F)F)C[C@@H]1c1cnc2cnc3[nH]ccc3n12", "note": "[Freebase Hydrate Form B]", "values": [{"measurement": "Physical stability", "setting": "[2]", "result": "not physically stable; also recorded: not stable after isolation at ambient conditions"}]}]}
